This note sets out measurements from ChEMBL document CHEMBL1146699, “P3 cap modified Phe*-Ala series BACE inhibitors” (Bioorg Med Chem Lett, 2004).

The target of one test is Beta-secretase 1 (Homo sapiens, UniProt P56817). Description: In vitro inhibitory activity against Beta-secretase 1 in human HEK293 cells. The format is cell-based.
The subject of test [1] is HEK293. Put plainly: Inhibitory activity against beta-amyloid (Abeta) peptide in human HEK293/APP751swe cells; Range 4.8-7.5. The class given is functional, cell-based.
Test [2] concerns HEK293. Description: Inhibitory activity against beta-amyloid (Abeta) peptide in human HEK293/APP751swe cells. The format is functional, cell-based.
Test [3] concerns the target T1, Beta-secretase 2 (Homo sapiens) (UniProt Q9Y5Z0).
T1 sequence (whole entry): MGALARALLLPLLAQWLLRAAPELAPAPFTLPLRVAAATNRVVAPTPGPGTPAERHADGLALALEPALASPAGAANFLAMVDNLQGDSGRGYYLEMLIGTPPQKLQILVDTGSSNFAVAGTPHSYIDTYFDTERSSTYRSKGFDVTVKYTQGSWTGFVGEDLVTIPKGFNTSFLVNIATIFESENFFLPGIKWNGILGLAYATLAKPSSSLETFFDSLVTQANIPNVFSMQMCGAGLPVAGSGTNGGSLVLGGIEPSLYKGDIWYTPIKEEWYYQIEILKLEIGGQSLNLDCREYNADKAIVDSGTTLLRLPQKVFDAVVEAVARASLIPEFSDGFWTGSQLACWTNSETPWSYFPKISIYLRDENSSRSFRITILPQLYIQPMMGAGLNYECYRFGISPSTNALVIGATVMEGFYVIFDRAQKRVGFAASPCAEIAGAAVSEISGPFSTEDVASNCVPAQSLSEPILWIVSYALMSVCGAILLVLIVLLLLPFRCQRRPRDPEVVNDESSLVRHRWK
Description: Selectivity tested against Beta-secretase 2 (BACE) in human.

In test [4] the test system is HEK293. Put plainly: Inhibitory activity against beta-amyloid (Abeta) peptide in human HEK293/APP751swe cells; Range 0.97-1.35. The class given is functional, cell-based.

For orientation: IC50 means the concentration that gives 50% inhibition. Low readings indicate greater potency, high ones weaker potency.

Chain of Beta-secretase 1 (P56817 whole entry): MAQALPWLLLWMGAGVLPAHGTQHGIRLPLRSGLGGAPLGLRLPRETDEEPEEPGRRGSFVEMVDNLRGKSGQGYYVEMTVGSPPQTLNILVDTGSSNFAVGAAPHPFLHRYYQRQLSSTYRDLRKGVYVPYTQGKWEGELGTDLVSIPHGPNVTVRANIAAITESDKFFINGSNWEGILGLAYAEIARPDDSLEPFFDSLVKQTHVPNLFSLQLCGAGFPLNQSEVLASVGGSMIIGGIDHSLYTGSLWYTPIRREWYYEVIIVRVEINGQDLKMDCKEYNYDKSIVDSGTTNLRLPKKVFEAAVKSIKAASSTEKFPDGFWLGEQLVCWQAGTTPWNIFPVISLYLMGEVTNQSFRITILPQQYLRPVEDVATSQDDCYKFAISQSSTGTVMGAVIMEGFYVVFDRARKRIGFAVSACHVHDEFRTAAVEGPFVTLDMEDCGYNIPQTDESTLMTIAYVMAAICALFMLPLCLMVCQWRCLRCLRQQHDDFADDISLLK

`CC(C)[C@H](O)C(=O)N[C@@H](C)C(=O)N[C@@H](Cc1ccccc1)[C@@H](O)C[C@@H](C)C(=O)N[C@H](C(=O)NCc1ccncc1)C(C)C`: the values for the IC50 against Beta-secretase 1 and in the test with HEK293 [1] were 130 nM and under 7500 nM, respectively.
Turning to `CC[C@H](C)[C@H](O)C(=O)N[C@@H](CC(F)F)C(=O)N[C@@H](Cc1ccccc1)[C@@H](O)C[C@@H](CC(F)F)C(=O)N[C@H](C(=O)NCc1ccncc1)C(C)C`, the IC50 on Beta-secretase 1 was 3180 nM; in the test on HEK293 [2] it was over 37500 nM.
With `CC(C[C@H](O)[C@H](Cc1ccccc1)NC(=O)[C@H](C)NC(=O)[C@@H](N)C(C)C)C(=O)NC(C(=O)NCc1ccncc1)C(C)C` (single isomer, unassigned), the IC50 on Beta-secretase 1 turned out to be 190 nM; in the test with HEK293 [2], 38400 nM. The molecule further returned a Selectivity in test [3] of 0.52.
Turning to `CC[C@H](C)[C@H](O)C(=O)N[C@@H](C)C(=O)N[C@@H](Cc1ccccc1)[C@@H](O)CC(C)C(=O)N[C@H](C(=O)NCc1ccncc1)C(C)C` (single isomer, unassigned), the results for the IC50 on Beta-secretase 1 and in the test on HEK293 [2] were 35 nM and 1230 nM, respectively.
For `CC[C@H](C)[C@H](O)C(=O)N[C@@H](CC(C)C)C(=O)N[C@@H](Cc1ccccc1)[C@@H](O)CC(CC(C)C)C(=O)N[C@H](C(=O)NCc1ccncc1)C(C)C` (single isomer, unassigned) the same measures were 176 nM and 3700 nM.
As for `CC(C[C@H](O)[C@H](Cc1ccccc1)NC(=O)[C@@H](NC(=O)[C@@H](O)C(C)C)C(C)C)C(=O)N[C@H](C(=O)NCc1ccncc1)C(C)C` (single isomer, unassigned), half-maximal inhibition on Beta-secretase 1 (IC50) required 4640 nM.
In the case of `CC(C[C@H](O)[C@H](Cc1ccccc1)NC(=O)[C@H](C)NC(=O)[C@@H](O)C(C)C)C(=O)N[C@H](C(=O)NCc1ccccc1)C(C)C` (single isomer, unassigned), the half-inhibitory concentration (IC50) at Beta-secretase 1 turned out to be 37 nM; in the test with HEK293 [2] it was 6300 nM.
On the same counts, the results for `CC(C[C@H](O)[C@H](Cc1ccccc1)NC(=O)[C@H](CO)NC(=O)[C@@H](O)C(C)C)C(=O)N[C@H](C(=O)NCc1ccncc1)C(C)C` (single isomer, unassigned) are 350 nM and 20000 nM.
On the same counts, the results for `CC[C@H](C)[C@H](O)C(=O)N[C@@H](CCC(F)F)C(=O)N[C@@H](Cc1ccccc1)[C@@H](O)CC(CCC(F)F)C(=O)N[C@H](C(=O)NCc1ccncc1)C(C)C` (single isomer, unassigned) are 45 nM and 1080 nM.
`CC[C@H](C)[C@H](O)C(=O)N[C@@H](CCCF)C(=O)N[C@@H](Cc1ccccc1)[C@@H](O)CC(CCCF)C(=O)N[C@H](C(=O)NCc1ccncc1)C(C)C` (single isomer, unassigned): the IC50 is 67 nM at Beta-secretase 1 and under 1350 nM with HEK293 [4].
As for `CC(C)C[C@H](O)C(=O)N[C@@H](C)C(=O)N[C@@H](Cc1ccccc1)[C@@H](O)CC(C)C(=O)N[C@H](C(=O)NCc1ccncc1)C(C)C` (single isomer, unassigned), the IC50 was found to be 230 nM against Beta-secretase 1 and 16900 nM with HEK293 [2].
For `CC(C[C@H](O)[C@H](Cc1ccccc1)NC(=O)[C@H](C)NC(=O)[C@@H](F)C(C)C)C(=O)N[C@H](C(=O)NCc1ccncc1)C(C)C` (single isomer, unassigned) the same measures were 1130 nM and 49000 nM.
On the same counts, the results for `CSCC[C@H](NC(=O)[C@@H](O)C(C)C)C(=O)N[C@@H](Cc1ccccc1)[C@@H](O)CC(C)C(=O)N[C@H](C(=O)NCc1ccncc1)C(C)C` (single isomer, unassigned) are 350 nM and 25200 nM.
For `CCC(C[C@H](O)[C@H](Cc1ccccc1)NC(=O)[C@H](C)NC(=O)[C@@H](O)C(C)C)C(=O)N[C@H](C(=O)N[C@H](C)c1ccccc1)C(C)C` (single isomer, unassigned) the same measures were 100 nM and 13600 nM.
On to `CC(C[C@H](O)[C@H](Cc1ccccc1)NC(=O)[C@H](C)NC(=O)[C@@H](O)CC(F)(F)F)C(=O)N[C@H](C(=O)NCc1ccncc1)C(C)C` (single isomer, unassigned), for which the figures for the IC50 against Beta-secretase 1 and in the test on HEK293 [2] were 220 nM and 3900 nM, respectively.
On the same counts, the results for `CCC(C[C@H](O)[C@H](Cc1ccccc1)NC(=O)[C@H](C)NC(=O)[C@@H](O)C(C)C)C(=O)N[C@H](C(=O)N[C@@H](C)c1ccccc1)C(C)C` (single isomer, unassigned) are 60 nM and 19800 nM.
For `CCC[C@H](NC(=O)[C@@H](O)C(C)C)C(=O)N[C@@H](Cc1ccccc1)[C@@H](O)CC(C)C(=O)N[C@H](C(=O)NCc1ccncc1)C(C)C` (single isomer, unassigned), the results for the IC50 on Beta-secretase 1 and in the test on HEK293 [2] were 550 nM and 30400 nM, respectively.
As for `CC(C)CC(=O)N[C@@H](C)C(=O)N[C@@H](Cc1ccccc1)[C@@H](O)CC(C)C(=O)N[C@H](C(=O)NCc1ccncc1)C(C)C` (single isomer, unassigned), the IC50 was 1740 nM at Beta-secretase 1 and over 100000 nM in the test on HEK293 [2].
On Beta-secretase 1, `CC(C[C@H](O)[C@H](Cc1ccccc1)NC(=O)[C@H](COC(C)(C)C)NC(=O)[C@@H](O)C(C)C)C(=O)N[C@H](C(=O)NCc1ccncc1)C(C)C` (single isomer, unassigned) had an IC50 of 4490 nM.
